Laboratory results: patent publication US7598258B2, “Quinoline derivatives and quinazoline derivatives inhibiting autophosphorylation of macrophage colony stimulating factor receptor” (Kirin Beer Kabushiki Kaisha, priority 2002, dated 2009)

Target: T1, Human KDR (Homo sapiens, UniProt P35968)
T1 construct: expressed in transfected cells; host or cells: NIH3T3 cells (mouse fibroblasts)
Assay: Inhibition of KDR phosphorylation in human KDR-transfected NIH3T3 cells (ELISA);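 for Selection ratio (KDR phosphorylation IC50 / c-fms phosphorylation IC50): class 2 means ratio of 10 or more and class 3 means 50 or more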
Type: cell-based
Conditions: for Selection ratio (KDR phosphorylation IC50 / c-fms phosphorylation IC50): class 0-3; for IC50: human KDR-transfected NIH3T3 cells, VEGF 100 ng/ml, ELISA, read-out: KDR phosphorylation 50% inhibitory concentration (IC50)
In short: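 NIH3T3 cells transfected with human KDR, in 0.1% FCS medium, treated with compound 1 hr at 37° C, then stimulated with VEGF 100 ng/ml for 2 min. Lysate KDR phosphorylation measured by anti-phosphotyrosine capture/anti-KDR ELISA (A450); IC50 from inhibition normalized between VEGF-stimulated and unstimulated wells.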

T1 sequence (P35968 20-1356): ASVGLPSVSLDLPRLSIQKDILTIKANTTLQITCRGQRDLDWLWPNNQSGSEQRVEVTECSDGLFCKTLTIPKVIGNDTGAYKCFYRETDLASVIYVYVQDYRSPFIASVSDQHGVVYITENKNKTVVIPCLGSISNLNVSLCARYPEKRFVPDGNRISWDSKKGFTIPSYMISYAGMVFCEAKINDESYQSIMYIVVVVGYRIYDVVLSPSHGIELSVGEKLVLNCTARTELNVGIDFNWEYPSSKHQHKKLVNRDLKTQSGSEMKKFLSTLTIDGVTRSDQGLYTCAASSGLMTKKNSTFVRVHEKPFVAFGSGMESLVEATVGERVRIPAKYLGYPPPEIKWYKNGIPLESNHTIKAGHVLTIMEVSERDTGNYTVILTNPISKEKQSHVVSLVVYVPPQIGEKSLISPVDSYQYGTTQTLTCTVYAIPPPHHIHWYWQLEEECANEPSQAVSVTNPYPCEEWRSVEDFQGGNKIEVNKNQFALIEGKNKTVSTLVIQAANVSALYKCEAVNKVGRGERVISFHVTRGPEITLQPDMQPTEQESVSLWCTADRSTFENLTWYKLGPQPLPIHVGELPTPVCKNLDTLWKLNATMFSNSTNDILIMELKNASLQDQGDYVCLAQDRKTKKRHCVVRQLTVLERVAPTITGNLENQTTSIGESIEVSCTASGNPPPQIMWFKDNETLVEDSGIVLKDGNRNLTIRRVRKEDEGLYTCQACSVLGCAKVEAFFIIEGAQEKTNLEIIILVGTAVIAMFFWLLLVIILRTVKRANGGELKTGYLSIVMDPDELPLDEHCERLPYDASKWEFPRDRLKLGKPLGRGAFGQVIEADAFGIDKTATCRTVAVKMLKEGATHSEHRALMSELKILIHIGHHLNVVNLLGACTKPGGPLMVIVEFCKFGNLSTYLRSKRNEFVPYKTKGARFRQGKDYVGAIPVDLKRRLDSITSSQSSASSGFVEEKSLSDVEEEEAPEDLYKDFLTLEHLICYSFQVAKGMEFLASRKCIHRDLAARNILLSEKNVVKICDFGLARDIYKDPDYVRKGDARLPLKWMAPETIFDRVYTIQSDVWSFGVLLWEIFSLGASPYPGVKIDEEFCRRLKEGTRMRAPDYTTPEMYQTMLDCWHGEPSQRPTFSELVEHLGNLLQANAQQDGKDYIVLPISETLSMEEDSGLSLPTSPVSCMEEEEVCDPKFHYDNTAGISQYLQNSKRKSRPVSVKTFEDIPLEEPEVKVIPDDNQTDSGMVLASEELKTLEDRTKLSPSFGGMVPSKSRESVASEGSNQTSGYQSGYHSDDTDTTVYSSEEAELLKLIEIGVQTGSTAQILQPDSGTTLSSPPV

IC50 [nM]	SMILES	Selection ratio (KDR phosphorylation IC50 / c-fms phosphorylation IC50)
32.3	COc1cc2nccc(Oc3ccc(NC(=O)N[C@@H](C)c4ccc(F)cc4)cc3)c2cc1OC [Example 2, N-{4-[(6,7-Dimethoxy-4-quinolyl)oxy]phenyl}-N′-[(1S)-1-(4-fluorophenyl)ethyl]urea]	2 (when the value was 10 or more)
< 1	COc1cc2nccc(Oc3ccc(NC(=O)N[C@H](C)c4ccc(F)cc4)cc3)c2cc1OC [Example 3, N-{4-[(6,7-Dimethoxy-4-quinolyl)oxy]phenyl}-N′-[(1R)-1-(4-fluorophenyl)ethyl]urea]	0 (KDR phosphorylation 50% inhibitory concentration [μM]/c-fms phosphorylation 50% inhibitory concentration [μM] was less than 5)
310	COc1cc2nccc(Oc3ccc(NC(=O)N[C@@H](C)c4ccc([N+](=O)[O-])cc4)cc3)c2cc1OC [Example 35, N-{4-[(6,7-Dimethoxy-4-quinolyl)oxy]phenyl}-N′-[(1S)-1-(4-nitrophenyl)ethyl]urea]	2 (when the value was 10 or more)
134	COc1cc2nccc(Oc3ccc(NC(=O)N[C@H](C)c4ccc([N+](=O)[O-])cc4)cc3)c2cc1OC [Example 36, N-{4-[(6,7-Dimethoxy-4-quinolyl)oxy]phenyl}-N′-[(1R)-1-(4-nitrophenyl)ethyl]urea]	0 (KDR phosphorylation 50% inhibitory concentration [μM]/c-fms phosphorylation 50% inhibitory concentration [μM] was less than 5)
18.8	COc1cc2nccc(Oc3ccc(NC(=O)N[C@@H](C)c4ccc(C)cc4)cc3)c2cc1OC [Example 41, N-{4-[(6,7-Dimethoxy-4-quinolyl)oxy]phenyl}-N′-[(1S)-1-(4-methylphenyl)ethyl]urea]	1 (when the value was 5 or more)
16.6	COc1cc2nccc(Oc3ccc(NC(=O)N[C@H](C)c4ccc(C)cc4)cc3)c2cc1OC [Example 42, N-{4-[(6,7-Dimethoxy-4-quinolyl)oxy]phenyl}-N′-[(1R)-1-(4-methylphenyl)ethyl]urea]	0 (KDR phosphorylation 50% inhibitory concentration [μM]/c-fms phosphorylation 50% inhibitory concentration [μM] was less than 5)
2.5	COc1cc2nccc(Oc3ccc(NC(=O)N[C@H](C)c4cccc(Br)c4)cc3)c2cc1OC [Example 45, N-[(1R)-1-(3-Bromophenyl)ethyl]-N′-{4-[(6,7-dimethoxy-4-quinolyl)oxy]phenyl}urea]	0 (KDR phosphorylation 50% inhibitory concentration [μM]/c-fms phosphorylation 50% inhibitory concentration [μM] was less than 5)
507	COc1cc2nccc(Oc3ccc(NC(=O)N[C@@H](C)c4cccc(Br)c4)cc3)c2cc1OC [Example 46, N-[(1S)-1-(3-Bromophenyl)ethyl]-N′-{4-[(6,7-dimethoxy-4-quinolyl)oxy]phenyl}urea]	3 (when the value was 50 or more)
310	COc1cc2nccc(Oc3ccc(NC(=O)N[C@@H](C)c4ccc(Cl)cc4)cc3)c2cc1OC [Example 47, N-[(1S)-1-(4-Chlorophenyl)ethyl]-N′-{4-[(6,7-dimethoxy-4-quinolyl)oxy]phenyl}urea]	3 (when the value was 50 or more)
2.7	COc1cc2nccc(Oc3ccc(NC(=O)N[C@H](C)c4ccc(Cl)cc4)cc3)c2cc1OC [Example 48, N-[(1R)-1-(4-Chlorophenyl)ethyl]-N′-{4-[(6,7-dimethoxy-4-quinolyl)oxy]phenyl}urea]	0 (KDR phosphorylation 50% inhibitory concentration [μM]/c-fms phosphorylation 50% inhibitory concentration [μM] was less than 5)
45.4	COc1cccc([C@H](C)NC(=O)Nc2ccc(Oc3ccnc4cc(OC)c(OC)cc34)cc2)c1 [Example 49, N-{4-[(6,7-Dimethoxy-4-quinolyl)oxy]phenyl}-N′-[(1S)-1-(3-methoxyphenyl)ethyl]urea]	2 (when the value was 10 or more)
28.3	COc1cccc([C@@H](C)NC(=O)Nc2ccc(Oc3ccnc4cc(OC)c(OC)cc34)cc2)c1 [Example 50, N-{4-[(6,7-Dimethoxy-4-quinolyl)oxy]phenyl}-N′-[(1R)-1-(3-methoxyphenyl)ethyl]urea]	0 (KDR phosphorylation 50% inhibitory concentration [μM]/c-fms phosphorylation 50% inhibitory concentration [μM] was less than 5)
